Patent US5464834A, “N-substituted N'-heterobicyclic piperazines having pharmaceutical activity” (Adir et Compagnie, priority 1992, dated 1995)
Read-outs that look alike come from different tables or passages of the source.

Tests used:
[1] = target: T1, 5HT1A receptors (Rattus norvegicus, UniProt P19327); assay: Drug discrimination (DD) 8-OH-DPAT; format: in vivo, rat (male Wistar); design: from tissue; host or cells: whole living male Wistar rats (endogenous receptor); conditions: for ED50: rat, sc, rats trained on 8-OH-DPAT 0.31 mg/kg
T1 sequence (P19327 1-422): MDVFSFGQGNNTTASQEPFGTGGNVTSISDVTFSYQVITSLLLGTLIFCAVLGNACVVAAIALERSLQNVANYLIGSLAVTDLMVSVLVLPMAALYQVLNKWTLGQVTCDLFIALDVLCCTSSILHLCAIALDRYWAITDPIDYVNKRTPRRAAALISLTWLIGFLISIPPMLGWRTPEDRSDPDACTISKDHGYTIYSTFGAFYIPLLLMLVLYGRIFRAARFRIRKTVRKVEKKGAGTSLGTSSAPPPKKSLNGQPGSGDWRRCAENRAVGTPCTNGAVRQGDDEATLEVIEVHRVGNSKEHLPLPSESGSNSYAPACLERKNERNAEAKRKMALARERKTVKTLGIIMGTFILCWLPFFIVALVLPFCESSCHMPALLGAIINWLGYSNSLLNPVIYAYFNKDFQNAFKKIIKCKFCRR
Description: (§1) The tests were carried out using male Wistar rats weighing 200 to 220 g having free access to their food and to their drinking water in standard cages.
Male rats are maintained at 85% of their normal body weight by means of food restriction. In soundproofed chambers the animals are trained to press a pedal to obtain food according to an FR10 procedure (Fixed Ratio 10; the food is supplied to the rat when it has pressed the lever 10 times).
Daily sessions of 15 minutes are preceded by an injection of solvent or of the training drug (0.31 mg/kg of 8-OH-DPAT, j.p.). The animal receives a pellet of food after pressing 10 times on the "solvent" or "drug" pedal according to the compound administered before the session.
After the learning period the animals are tested twice a week (Wednesday and Friday). On the other three days training sessions are carried out.
On the training days the rats are given either solvent or 8-OH-DPAT 15 minutes before being tested.
On the test days the rats receive the chemical substance 60 minutes before the session.
The capacity of the chemical substance administered to induce a response (pressing on the "solvent" or "drug" (8-OH-DPAT ) lever ) is recorded.
7 animals chosen at random are used for each substance and for each dose. During the test period, the lever on which the rat first presses 10 times is determined as the lever chosen--a food pellet is then delivered. That selected lever will be reinforced by the delivery of food up to the end of the test session. The percentage of animals selecting the "drug" lever at a particular dose is calculated. In addition, the total number of responses carried out on the two levers is expressed as a percentage of the number of responses carried out on the "solvent" lever obtained on the occasion of a preceding training session.
The doses of the compounds tested are all expressed in base terms. Unless specified otherwise, all of the compounds were dissolved in sterile water (to which if necessary a few drops of lactic acid were added) and administered at a volume of 1 ml/kg s.c.

[2] = target: T1, 5HT1A receptors; assay: In vitro binding test, 5HT1A receptors ([3H]-8-OH-DPAT, hippocampus membranes); design: The hippocampus of the brains of decapitated rats was immediately frozen; from tissue; host or cells: hippocampus membranes of male Wistar rats; species or system rat (male Wistar); conditions: rat hippocampus; [3H]-8-OH-DPAT 0.4 nM; 30 min at 25° C; read-out: AFFINITY (pKi) (converted)
Description: as §1
The hippocampus of the brains of decapitated rats was immediately frozen on solid carbon dioxide and then kept at -80° C. until preparation of the membranes. The tissue was homogenised at 4° C. in the appropriate buffer using a Polytron (Brinkman Instruments, Lucerne, Switzerland) and centrifuged at 20,000 revs/min.
Incubation was carried out for 30 minutes at 25° C. Non-specific binding was established by […] of 5HT. The tests were terminated by rapid filtration using a Brandel harvester through glass fibre filters pretreated with 0.1% polyethylene imine.
The IC50 values were determined in accordance with process 8 of Tallarida R. J. and Murray R. B., Manual of Pharmacological calculations with computer programs, Springer Verlag, New York, (1987).
The pKi was calculated in accordance with the following formula: [formula] wherein [L] is the concentration of the hot ligand (^[3] H-8-OH-DPAT, 0.4 nM) and Kd is the apparent dissociation constant determined from the saturation experiments.
The substances studied were dissolved in the incubation buffer.
Binding of 5HT1A receptors

ED50 ([1]; antagonist, vs 8-OH-DPAT, read-out: DD 8-OH-DPAT ID50 (95% CL) + DPAT): 0.63 mg/kg
ED50 ([1]; compound alone, 60 min before session, read-out: DD 8-OH-DPAT ED50 (95% CL) alone): > 2.5 mg/kg
% MPA (% maximum possible antagonism), DD ([1]; vs 8-OH-DPAT): 100%
Ki [2]: 1.74 nM
Compound: c1cc2c(c(N3CCN(CCCc4ccsc4)CC3)c1)OCCO2 [Example 1, 4-(Benzodioxan-5-yl)-1-[3-(thiophen-3-yl)propyl]piperazine]
